Results as given in US20090089889A9, “Neuromedin u receptor subtype 1 deficient transgenic mice and uses thereof” (priority 2006, published 2009).
“Also recorded” adds a separate entry of the source. Where no end group is shown, it is not given here.

Assays:
Assay type in all cases: in vivo, mouse
Nmur1−/− mice [1] = experiment: Acute central (i.c.v.) NMU administration in NMUR1 knockout mice; conditions: centrally administered NMU
Experimental: (§1) FIG. 2A describes results from an experiment where C57BL/6 mice were dosed intracerebronventricularly (i.c.v) with either vehicle (aCSF) or NMU ˜30 min. prior to the onset of the dark phase and food intake was measured 2 h later. *, P<0.05 vs. vehicle; n=12-24 per group. In FIG. 2B, Nmur1 or Nmur2 mice were dosed i.c.v. with either vehicle (aCSF) or 3 μg NMU ˜30 min. prior to the onset of the dark phase and food intake was measured 2 h later. *, P<0.05 vs. corresponding vehicle; #, P<0.05 vs. Nmur2+/+, NMU; n=14 per treatment group.
(§2) Mice were anesthetized with an intramuscular (im) injection of ketamine (100 mg/kg) and domitor (0.75 mg/kg) and placed in a stereotactic device (Kopf Instruments). […]
(§3) For acute nocturnal feeding studies, ad libitum fed male mice maintained on regular chow were weighed and dosed either intraperitoneally (ip) or icv ˜30 min prior to the onset of the dark phase of the light cycle and provided with a preweighed aliquot of chow which was then weighed two and 18 hours (overnight) after the onset of the dark phase. […] For chronic feeding studies, ad libitum fed male mice normally maintained on regular chow were switched to a palatable moderate fat diet at the initiation of treatment and food intake and body weight were measured daily.

Nmur2−/− mice [2] = experiment: Acute central (i.c.v.) NMU administration in NMUR2 knockout mice; conditions: i.c.v. 3 μg NMU, 2 h
Experimental: as §1, §2, §3

Nmur2−/− mice [3] = experiment: Acute peripheral (i.p.) NMU administration in NMUR2 knockout mice; conditions: peripherally administered NMU
Experimental: (§4) Food intake (FIG. 1A) and body weight (FIG. 1B) were measured in C57BL/6 mice dosed intraperitoneally (i.p.) either with vehicle (saline) or with NMU approximately 30 minutes prior to onset of darkness. Measurements were taken about 18 hours later. * indicates p value of <0.05, n=6 per treatment group. In FIGS. 1C and 1D, food intake and body weight are measured in Nmur1 and Nmur2 mice dosed ip with either saline or 30 mg/kg (mkg) NMU about 30 minutes prior to the onset of the dark phase. Measurements were taken 18 hrs later. *, P<0.05 vs. saline, n=6 per treatment group. Nmur1 or Nmur2 mice were dosed i.p. with either vehicle (saline) or 30 mpk NMU ˜30 min. prior to the onset of the dark phase and food intake (C) and body weights (D) were measured 18 h (overnight) later. *, P<0.05 vs. corresponding vehicle; #, P<0.05 vs. Nmu1r+/+, NMU; $, P=0.052; n=10 per treatment group.
(§5) The Nmur1 mice were maintained on a 50% C57BL/6×50% 129S6/SvEv background and Nmur2 mice (licensed from Deltagen) on a 75% C57BL/6×25% 129/OlaHsd background. For comparison with wild-type, 10-12 week-old male C57BL/6 mice were purchased from Taconic Farms. Mice were individually housed in Tecniplast cages in a conventional SPF facility. […]

C57BL/6 mice [4] = experiment: 14-day chronic i.c.v. infusion via Alzet mini-osmotic pumps
Experimental: FIG. 4 depicts treatment of C57BL/6 mice with either vehicle (aCSF); 12, 36 or 120 μg NMU/day; or 4.8 μg MTII/day for 14 days via Alzet mini-osmotic pumps implanted subcutaneously in the intrascapular space and connected with a catheter to a permanent indwelling i.c.v cannula implanted in the dorsal third cerebroventricle. 14-day cumulative effects on body weight (A), adiposity (B) and food intake (C). *, P<0.05 vs. vehicle; n=5-8 per group.
Mice were anesthetized with an intramuscular (im) injection of ketamine (100 mg/kg) and domitor (0.75 mg/kg) and placed in a stereotactic device (Kopf Instruments). For acute i.c.v. studies, a 26-gauge single acute guide cannula (Plastics One) was implanted into the dorsal third cerebral ventricle (0.22 mm posterior, 0.3 mm lateral and 3.3 mm ventral to bregma) and secured to the skull with cyanoacrylate adhesive followed by dental cement. Following surgery, a 33-gauge dummy cannula (Plastics One) was inserted into each guide cannula and mice were given an im injection of atapimazole (5 mg/kg). All cannulated mice were given one week of postoperative recovery, during which time they were handled daily to minimize nonspecific stress. All substances were administered to conscious mice with a repeating dispenser (Hamilton) equipped with a 50-μl Hamilton syringe and 33-gauge needle designed to extend 0.1-0.2 mm beyond the tip of the guide cannula. Mouse NMU-23 (Phoenix Pharmaceuticals) was dissolved in artificial cerebrospinal fluid (aCSF; Harvard Apparatus) and adjusted the pH to ˜7 with NaOH. All substances were injected in a total volume of 1 μl. Mice were given at least a 48-h recovery period between treatments. All acute icv injection studies were of crossover design, a paradigm in which mice initially treated with vehicle are subsequently treated with the agent of interest dissolved in vehicle and vice versa. For chronic icv studies, a 28-gauge osmotic pump connector cannula (Plastics One) was implanted into the dorsal third cerebral ventricle and secured to the skull. Then a micro-osmotic pump designed to deliver 0.5 μl/h (Alza Co.) and filled with aCSF was implanted subcutaneously in the intrascapular space and connected with vinyl tubing to the osmotic pump connector cannula.
(§6) Immediately following surgery, mice were given an im injection of atapimazole. Five days following the initial surgery, mice were again anesthetized and placed in the stereotactic device. Micro-osmotic pumps were removed and replaced with mini-osmotic pumps designed to deliver 0.5 μl/h (Alza Co.) and filled with either aCSF or mouse NMU-23 (Mimotopes) or MTII (Bachem) dissolved in aCSF. The pH of all solutions was adjusted to ˜7 with NaOH. Immediately following surgery, mice were given an im injection of atapimazole. For chronic sc infusions studies, mice were anesthetized and then a micro-osmotic pump designed to deliver 0.5 μl/h and filled with either sterile H2O or mouse NMU-23 (Mimotopes) or MTII (Bachem) dissolved in sterile H2O was implanted subcutaneously in the intrascapular space. The pH of all solutions was adjusted to ˜7 with NaOH. Immediately following surgery, mice were given an im injection of atapimazole.
For acute nocturnal feeding studies, ad libitum fed male mice maintained on regular chow were weighed and dosed either intraperitoneally (ip) or icv ˜30 min prior to the onset of the dark phase of the light cycle and provided with a preweighed aliquot of chow which was then weighed two and 18 hours (overnight) after the onset of the dark phase. Mice were again weighed at the later time point. For chronic feeding studies, ad libitum fed male mice normally maintained on regular chow were switched to a palatable moderate fat diet at the initiation of treatment and food intake and body weight were measured daily. […]

Nmur1−/− mice [5] = experiment: Acute NMU administration (peripheral, i.p.) in NMUR1 knockout mice
Experimental: as §4
Nmur1 knockout (Nmur1^−/−) mice were generated using standard homologous recombination techniques. Briefly, a mouse genomic DNA library was screened with a mouse Nmur1mur cDNA probe, which was generated by PCR. One positive clone was isolated. Two regions of the clone were subcloned into pKO Scrambler NTKV-1904 (Stratagene) and a targeting vector was generated. The targeting vector was linearized by NotI restriction enzyme digestion and transformed into AB2.1 embryonic stem (ES) cells by electroporation with a Bio-Rad Gene Pulser. Transfected cells were cultured with G418 and FIAU for positive and negative selections, respectively. Approximately 500 clones were selected, and 20 correctly targeted ES cell clones were identified by Southern blot analysis. Five correctly targeted ES clones were injected into C57BL/6 blastocysts and these were implanted into pseudopregnant female mice. Several chimeric progeny gave germ-line transmission of the mutant NMUR1 allele and one NMUR1^−/− was established. F3 hybrid mice were used in all experiments
(§7) The Nmur1 mice were maintained on a 50% C57BL/6×50% 129S6/SvEv background and Nmur2 mice (licensed from Deltagen) on a 75% C57BL/6×25% 129/OlaHsd background. For comparison with wild-type, 10-12 week-old male C57BL/6 mice were purchased from Taconic Farms. Mice were individually housed in Tecniplast cages in a conventional SPF facility. Mice were maintained on either regular chow (Teklad 7012: 13.4% kcal from fat; Harlan Teklad), a moderate fat diet (D12266B: 32% kcal from fat; Research Diets, Inc.) or, to induce obesity (DIO), a high fat diet (D12492: 60% kcal from fat; Research Diets, Inc.) with ad libitum access to water in a 12-h light/12-h dark cycle, unless stated otherwise.
(§8) For acute nocturnal feeding studies, ad libitum fed male mice maintained on regular chow were weighed and dosed either intraperitoneally (ip) or icv ˜30 min prior to the onset of the dark phase of the light cycle and provided with a preweighed aliquot of chow which was then weighed two and 18 hours (overnight) after the onset of the dark phase. Mice were again weighed at the later time point. For chronic feeding studies, ad libitum fed male mice normally maintained on regular chow were switched to a palatable moderate fat diet at the initiation of treatment and food intake and body weight were measured daily.

C57BL/6 mice [6] = experiment: 7-day chronic s.c. infusion via Alzet micro-osmotic pumps; conditions: C57BL/6 mice, 0.3, 1, 3 or 10 mpk NMU/day s.c. infusion for 7 days
Text: FIG. 3 describes the results from treatment of C57BL/6 mice with either vehicle (H2O); 0.3, 1, 3 or 10 mpk NMU/day; or 10 mpk MTII/day for 7 days via Alzet micro-osmotic pumps implanted sc in the intrascapular space. 7-day cumulative effects on body weight (A), adiposity (B) and food intake (C). *, P<0.05 vs. Vehicle; n=4-10 per treatment group.
as §6, §3
Whole body composition analysis of conscious live mice was conducted using a Quantitative Magnetic Resonance (QMR) method (EchoMRI™, Echo Medical Systems, Houston, Tex.) (Tinsley et al. (2004) Obesity Research 12:150). […]

C57BL/6 mice [7] = experiment: Acute nocturnal feeding study, central (i.c.v.) NMU in wild-type mice; conditions: measured 2 h later
Experimental: as §1, §2, §3

C57BL/6 mice [8] = experiment: Acute nocturnal feeding study, peripheral (i.p.) NMU in wild-type mice; conditions: i.p. (peripheral) ~30 min before dark phase, measured 18 h later
Experimental: as §4, §5
All resultant measurement values were reported as mean±S.E.M. and data was analyzed by the two-tailed unpaired Student's t test. […]

[9] = test system: diet-induced obese C57BL/6 mice; experiment: Core body temperature after acute i.p. dosing of fasted diet-induced obese mice; conditions: overnight fasted DIO C57BL/6 mice, i.p. 0.3, 1, 3 or 10 mpk NMU, 6 h monitoring
Experimental: FIG. 5 presents the results of an experiment where overnight fasted diet-induced obese C57BL/6 mice were dosed i.p. with either vehicle (saline); 0.3, 1, 3 or 10 mpk NMU; or 5 mpk MTII. Core temperature is plotted as change from vehicle baseline. A, hourly change. B, 6-h cumulative change.
Body temperature changes were measured as well. Male diet-induced obese mice maintained on a high fat diet were implanted with Mini-Mitter transmitters (Mini Mitter, Bend, Oreg.) prior to the study. Temperature recordings were initiated one day prior to dosing. Mice were fasted overnight and then the following morning 3 h after the onset of the light phase mice were dosed ip. Core body temperature was monitored for 6 h following dosing.

DIO mice = experiment: 13-day chronic subcutaneous infusion in DIO mice
Experimental: as §6, §7

[10] = test system: lean and DIO C57BL/6 mice; experiment: Ad libitum food intake of lean and DIO mice after rat NMU peptide
Experimental: as §8

[11] = C57BL/6 mice, 12, 36 or 120 μg NMU/day i.c.v. infusion for 14 days
[12] = C57BL/6 mice, 12, 36 or 120 μg NMU/day i.c.v. infusion for 14 days, listed as mouse NMU-23
[13] = Nmur1−/− transgenic mice, mouse NMU-23 peptide administration, route not stated

Substance: NMU: Mouse NMU-23 neuromedin U peptide (Phoenix Pharmaceuticals, Mimotopes), agonist of NMUR1 and NMUR2 (FKAEYQSPSVGQSKGYFLFRPRN; ends and bridges not checked; UniProt Q9QXK8 144-166, looked up)
- anorectic actions (food intake) (Nmur1−/− mice [1]): present
- food intake (anorectic action) (Nmur2−/− mice [2]): do not show the same reduction; also recorded: absent
- anorectic actions (food intake) (Nmur2−/− mice [3]): present
- body composition (C57BL/6 mice [4]; 14-day chronic i.c.v. infusion): Effects are also seen
- adiposity, 14-day cumulative (C57BL/6 mice [4]; [11]): dose-dependent cumulative effects; also recorded: reduces
- body weight, 14-day cumulative (C57BL/6 mice [4]; [11]): dose-dependent cumulative effects; also recorded: reduces
- food intake, 14-day cumulative (C57BL/6 mice [4]; [11]): dose-dependent cumulative effects; also recorded: reduces
- body weight, 14-day cumulative (C57BL/6 mice [4]; [12]): Effects are also seen
- food intake, 14-day cumulative (C57BL/6 mice [4]; [12]): Effects are also seen
- body weight (Nmur1−/− mice [5]; Nmur1 knockout mice, peripheral (i.p.) 30 mpk NMU, 18 h): not seen
- food intake (anorectic action) (Nmur1−/− mice [5]; Nmur1 knockout mice, peripheral (i.p.) 30 mpk NMU, 18 h, 30 mg/kg): not seen; also recorded: absent
- body temperature (Nmur1−/− mice [5]; [13]): largely unaffected
- body weight (Nmur1−/− mice [5]; [13]): largely unaffected
- food intake (Nmur1−/− mice [5]; [13]): largely unaffected
- adiposity, 7-day cumulative (C57BL/6 mice [6]): dose-dependent effects; also recorded: reduces
- body weight, 7-day cumulative (C57BL/6 mice [6]): dose-dependent effects; also recorded: reduces
- food intake, 7-day cumulative (C57BL/6 mice [6]): dose-dependent effects; also recorded: reduces
- food intake (C57BL/6 mice [7]): reduces
- body weight (C57BL/6 mice [8]): dose-dependent reduction
- food intake (C57BL/6 mice [8]): dose-dependent reduction; also recorded: reduces
- core body temperature (change from vehicle baseline) [9]: dose-dependent effect; also recorded: dose-dependently increases
- body weight (DIO mice): demonstrable effects
- core temperature (DIO mice): demonstrable effects
- food intake (DIO mice): demonstrable effects

Substance: rNMU-23: a rat NMU peptide (YKVNEYQGPVAPSGGFFLFRPRN; ends and bridges not checked; UniProt P12760 144-166, looked up)
- ad libitum food intake [10]: mimic those of the mouse isoform
